Results on three molecules are retold here after US20050080024A1, “Nitric oxide donating derivatives for the treatment of cardiovascular disorders” (priority 2002, published 2005).

Read-outs that look alike come from different tables or passages of the source.

The subject of one test is C. albicans. In words: Murine model for systemic candidiasis. It is filed as in vivo. The conditions noted are these: treated mice; fluconazole orally. As to the method:
In addition, fungicidal compounds of the invention are efficacious in a murine model for systemic candidiasis. Fungicidal compounds of the invention prolong mean and median survival times of treated mice. The compounds are administered IP producing a similar survival pattern as that produced by the positive control compound fluconazole administered orally. […] Fungicidal compounds of the invention are also efficacious when administered orally to mice with an established systemic Candida infection. The compound given orally is similar in efficacy to fluconazole as measured by survival time, percent cures and kidney burden. Fungicidal compounds of the invention are also effective against systemic candidiasis caused by a strain of C. albicans resistant to fluconazole.

The conditions of test [1]: human study; cited from earlier work.
For test [2] the following is noted: rabbits; cited from earlier work.
Another test relates to ApoA-1 gene. Particulars: putatively mediated through Site S (PCT/CA03/01220); cited from earlier work.

For `OC(Cn1cncn1)(Cn1cncn1)c1ccc(F)cc1F` [fluconazole], the “recoverable colonies from the kidneys” value with C. albicans is listed as “reduce recoverable colonies from the kidneys”.
On to `O=C1CC(c2ccc(O)cc2)Oc2cc(O)cc(O)c21` (stereo not shown) [naringenin, 5,7-dihydroxy-2-(4-hydroxy-phenyl)-chroman-4-one], for which, in test [1], the HDL result is “increase HDL”, the LDL entry was “no effect” and the triglycerides result was “no effect”. Also, in test [2], the HDL result is listed as “no effect upon HDL” and the LDL result is “decrease LDL”.
`Oc1ccc(/C=C/c2cc(O)cc(O)c2)cc1` [resveratrol, 5-[(E)-2-(4-hydroxy-phenyl)-vinyl]-benzene-1,3-diol]: the “transcription of apolipoprotein Al” value with ApoA-1 gene was “increase the transcription of apolipoprotein Al”.
